We go through five compounds from patent US20020106354A1, “CELLULAR AND ANIMAL MODELS FOR DISEASES ASSOCIATED WITH ALTERED MITOCHONDRIAL FUNCTION” (priority 1998, published 2002).

Data set [1] has as its system INS-1 cells. The data set can be described thus: Quantification of mitochondrial DNA by slot blotting (COX-I probe) in INS-1 cells treated with nucleoside analogs. The data set is classed as cell-based, rat. The settings on record: for Relative [mtDNA] After Contact w/ Antiviral / depleted for mitochondrial DNA / effect on mtDNA content / depleted for mtDNA: seven days; for effect on mtDNA content: varying concentrations. How it is done: Media were replenished every two days. Cells were harvested at periodic intervals and assayed for insulin secretion and mtDNA content. INS-1 cells, or ρ^[…] cells generated using ddC as described above, were seeded into 12-well plates containing RPMI media supplemented as described above at 0.4×10^6 cells/well and cultured at 37° C., 5% CO2 for 2 days. Cells (0.7×10^6 cells/well) were rinsed with PBS and total cellular DNA was extracted using DNAzol (Molecular Research Center, Inc., Cincinnati, Ohio) according to the manufacturer's instructions. One hundred ng DNA from each cell preparation was slot-blotted onto a Zeta-Probe membrane (Bio-Rad, Hercules, Calif.) and crosslinked at 125 joules using a BioRad GS GeneLinker irradiation/energy source. The membranes were rinsed in hybridization buffer (5× SSC, 0.1% N-laurylsarcosine, 0.02% SDS, 1% blocking solution, Boehringer Mannheim, Indianapolis, Ind.) and hybridized overnight in the same buffer at 42° C. with the [^32P]-labeled rat COX I probe. Following hybridization, membranes were washed twice with 2X SSC/0.1% SDS and twice with 0.1× SSC/0.1% SDS and exposed to X-ray film. Mitochondrial DNA was quantified by densitometric scanning of the resulting autoradiographs. Time Course of Effects of ddC on Mitochondrial DNA Content of INS-1 Cells INS-1 cells were grown in RPMI medium supplemented with 10% fetal calf serum, 2 mM […], 100 U/ml penicillin, 100 μg/ml streptomycin, 10 mM HEPES, 1 mM sodium pyruvate, 50 μg/ml uridine, and 50 μM β-mercaptoethanol, in the presence of 10 μM ddC. After various times in culture, cells were harvested for analysis of mtDNA content. Total cellular DNA was extracted from approximately one million cells using DNAzol (Molecular Research Center, Inc. Cincinnati, Ohio) essentially according to the manufacturer's instructions. One hundred ng total DNA was analyzed by slot-blot on Zeta-Probe membranes (Bio-Rad, Hercules, Calif.). The membranes were hybridized with a [^32P]-labeled probe complementary to the mitochondrial gene encoding COXI. Autoradiograms were prepared, and the relative content of mitochondrial DNA (mtDNA) estimated by the relative densities of the autoradiographic bands.

Data set [2] deals with INS-1 cells. Kind of data set: Insulin secretion by mtDNA-depleted INS-1 cells (insulin radioimmunoassay). It counts as cell-based, rat. The settings on record: 10 μM for 40 days. On the procedure: INS-1 cells, or ρ^[…] cells generated using ddC as described above, were seeded into 12-well plates containing RPMI media supplemented as described at 0.5×10^6 cells/well and cultured at 37° C., 5% CO2 for 2 days. Cells (0.7×10^6 cells/well were rinsed with glucose-free KRH buffer (134 mM NaCl, 4.7 mM KCl, 1.2 mM KH2PO4, 1.2 mM MgSO4, 1.0 mM CaCl2, 10 mM HEPES, 10 mM NaHCO3, 0.5% BSA), then incubated in the same buffer for 1 hr at 37° C. in a humidified 5% Co2/95% air atmosphere. Fresh KRH buffer containing 0.5 mM isobutylmethyl xanthine and the following secretagogues was added: 5 mM glucose, 10 mM glucose, 20 mM glucose, 5 mM KCl or 20 mM KCl. After an additional 1 hr at 37° C., 5% CO2 the culture supernatants were collected. Insulin concentrations in the supernatants were measured and normalized to cell number using an insulin-specific radioimmunoassay kit (ICN Biochemicals, Irvine, CA) according to the manufacturer's instructions.

For data set [3], the system named is INS-1 cells. The data set can be described thus: Lactate production in ddC-treated INS-1 cells. The data set is classed as cell-based, rat. How it is done:
Lactate production was measured in ddC-treated and control INS-1 cells at approximately day 40 and day 50 of ddC incubation. Cells were grown in 35 mm dishes. Media were replenished 16 hr before assay with normal culture media containing various amounts of glucose. The media were then collected, and lactate measured using a commercially available kit, in which lactate dehydrogenase is used to produce a fluorescent compound (Sigma, St. Louis, Mo.), essentially according to the manufacturer's instructions.

The test system of data set [4] is INS-1 cells. The data set can be described thus: Oxygen consumption (Clark oxygen electrode) before and after KCN. It counts as cell-based, rat. The note with it: ddC for >50 days (Rho revertants), before and after 1 uM KCN (FIG. 4). On the procedure: Neurochem. 67:1897-1907, 1996) before and after the addition of 1 uM KCN. KCN inhibits mitochondrial respiration, primarily via its effect on Complex IV activity.

In a further data set the test system is patients. The settings on record: cited from earlier work.

As a reminder, the IC50 is the concentration that gives 50% inhibition.

In the case of `Nc1ccn([C@H]2CC[C@@H](CO)O2)c(=O)n1` [ddC, 2′3′-dideoxycytidine], the “Relative [mtDNA] After Contact w/ Antiviral” value in the data set on INS-1 cells [1] (5 μM, INS-1 cells) is listed as 0.86; in the data set with INS-1 cells [1] (10 μM, INS-1 cells), 0.86; in the data set on INS-1 cells [1] (50 μM, INS-1 cells), 0.41; with INS-1 cells [1] (100 μM, INS-1 cells), 0.31. Besides, the “Relative mtDNA content per million cells” value in the data set with INS-1 cells [1] (10 μM ddC, day 3) came to 0.46; in the data set with INS-1 cells [1] (10 μM ddC, day 7) it was 0.41; in the data set on INS-1 cells [1] (10 μM ddC, day 14) it was 0.055; in the data set with INS-1 cells [1] (10 μM ddC, day 21), 0.020; with INS-1 cells [1] (10 μM ddC, day 40), 0.0021; in the data set with INS-1 cells [1] (10 μM ddC, day 60), 0.550. Also, the “Relative mtDNA content per million cells” value with INS-1 cells [1] (10 μM ddC, day 80) is given as 0.81. The “mtDNA content relative to pretreatment (day 0)” value in the data set on INS-1 cells [1] (10 μM ddC, day 80, about one million cells) was “about 80%”. Besides, the mtDNA detectability entry in the data set with INS-1 cells [1] (10 μM, 40 days) was “undetectable”; with INS-1 cells [1] (25 μM, after 21 days, INS-1 cells), “undetectable”. Also, in the data set on INS-1 cells [1] (100 μM), the “depleted for mitochondrial DNA” value is 69%. Besides, the half-inhibitory concentration (IC50) in the data set on INS-1 cells [1] (Rattus norvegicus, INS1, 168 h, seven days incubation, INS-1 cells (FIG. 1), read-out: IC50 for decrease of mtDNA content) was around 50 µM. Also, the “effect on mtDNA content” value with INS-1 cells [1] (INS-1 cells (FIG. 1)) is “decreased mtDNA content in a dose-dependent fashion”. Moreover, the KCl-mediated insulin secretion result in the data set on INS-1 cells [2] is “remained intact”. The “glucose stimulated insulin secretion” value in the data set on INS-1 cells [2] (5, 10, 20 mM glucose (FIG. 3)) is listed as “no glucose stimulated insulin secretion was observed”. In addition, the “lactate produced relative to control (untreated) cells” value in the data set on INS-1 cells [3] (40-day ddC-treated cells, 25 or 50 mM glucose) is above 5 times. The “lactate produced compared with control (untreated) cells” value in the data set with INS-1 cells [3] (after more than about 50 days ddC) is recorded as “comparable amounts of lactate”. Further, in the data set with INS-1 cells [4], the “mitochondrial-mediated respiration (oxygen consumption)” value was “mitochondrial-mediated respiration (Complex IV activity) was present”. The “side-effect of treatment: peripheral neuropathy” value with patients is reported as “axonal peripheral neuropathy”. In addition, in the data set on patients (particularly diabetics), the “side-effect of treatment: neuropathy” value was “toxic and painful neuropathy”.

For the compound `Cc1cn([C@H]2C[C@H](N=[N+]=[N-])[C@@H](CO)O2)c(=O)[nH]c1=O` [AZT, 3′-azido-3′ deoxythymidine], the “depleted for mtDNA” value in the data set with INS-1 cells [1] (5 μM) is given as “no depletion of mtDNA”; in the data set with INS-1 cells [1] (10 μM) it was 4%; in the data set on INS-1 cells [1] (50 μM) it was 15%. The “depleted for mitochondrial DNA” value in the data set on INS-1 cells [1] (100 μM) is listed as “no depletion of mtDNA”.

`Cc1cn([C@H]2C=C[C@@H](CO)O2)c(=O)[nH]c1=O` [d4T, 2′3′-didehydro-3-deoxythymidine]: the “Relative [mtDNA] After Contact w/ Antiviral” value in the data set on INS-1 cells [1] (10 μM, INS-1 cells) was found to be 0.98; with INS-1 cells [1] (50 μM, INS-1 cells), 0.56; with INS-1 cells [1] (100 μM, INS-1 cells), 0.05. Further, in the data set with INS-1 cells [1] (100 μM), the “depleted for mitochondrial DNA” value was 95%. The “effect on mtDNA content” value with INS-1 cells [1] (INS-1 cells (FIG. 1)) is recorded as “decreased mtDNA content in a dose-dependent fashion”. In the data set with patients, the “side-effect of treatment: peripheral neuropathy” value is “axonal peripheral neuropathy”.

Take `O=c1[nH]cnc2c1ncn2[C@H]1CC[C@@H](CO)O1` [ddI, 2′3′-dideoxyinosine]: in the data set with INS-1 cells [1] (100 μM), the “depleted for mitochondrial DNA” value is listed as 80%. In addition, the “effect on mtDNA content” value with INS-1 cells [1] (INS-1 cells (FIG. 1)) is recorded as “decreased mtDNA content in a dose-dependent fashion”.

Regarding `O=c1[nH]c(=O)n([C@@H]2O[C@H](CO)[C@@H](O)[C@@H]2F)cc1I` [FIAU, fialuridine], the “Relative [mtDNA] After Contact w/ Antiviral” value in the data set with INS-1 cells [1] (10 μM, INS-1 cells) turned out to be 0.66; in the data set on INS-1 cells [1] (100 μM, INS-1 cells) it was 0.39. In addition, in the data set with INS-1 cells [1] (100 μM), the “depleted for mitochondrial DNA” value was 61%.
